These results are taken from patent US8530447B2, “Dietary fiber formulation and method of administration” (Nestec S.A., priority 2005, dated 2013).

For this test, the system named is human fecal bacteria. As to the kind of experiment: Measure of prebiotic effect (MPE), stirred pH-controlled batch culture fermentations. It counts as cell-based. The method, then:
Quantitative in vitro methods are known for measuring the prebiotic effect of a fiber. The measurable effect a fiber has on the growth of major bacterial species in the human gut, bifidobacteria and lactobacilli in particular, is the measure of the prebiotic effect (MPE). MPE has three components:
1. the rate fiber is fermented;
2. the changes in bacterial populations; and
3. the production of SCFA.
The rate of fiber fermentation is determined by the change in the concentration of fiber over time. Thus, the quicker the fiber concentration decreases, the faster the rate of fermentation by bacteria. Changes in bacterial populations are measured by the “prebiotic index,” which considers increases in the growth rate of bifidobacteria, lactobacilli, and eubacteria as positive effects and increases in bacteriodes, clostridia, Escherichia coli, and sulphate-reducing bacteria as negative effects. Different fibers support the growth of distinct bacteria and therefore yield varying patterns and/or amounts of SCFA. However, the prebiotic effect is usually associated with lactic acid-producing bacteria, bifidobacteria and lactobacilli being principle lactic acid producers. Therefore, the ratio of lactic acid production relative to the total SCFA production provides a qualitative as well as quantitative assessment of the fibers being examined. The MPE provides a quantitative analysis of the prebiotic potential of a fiber and provides further support for the benefits of specific fibers. Therefore, the MPE is a useful tool in identifying the types and specific amounts of fiber that promote optimal digestive health and prevent or treat intestinal diseases.
Each value is based on stirred, pH-controlled batch culture fermentations using 0.25%, 0.5%, and 1.0% (w/v) substrates in the presence of human fecal bacteria.

For `OC[C@H]1O[C@@](CO)(O[C@H]2O[C@H](CO)[C@@H](O)[C@H](O)[C@H]2O)[C@@H](O)[C@@H]1O` [Sucrose], the MPE is given as −0.3 (0.25% (w/v) substrate), −0.3 (0.5% (w/v) substrate) and −0.6 (1% (w/v) substrate).
